The source of these data is patent US20090005384A1, “Method for Producing Adsorptive Porous Body” (Kowa Co., Ltd, priority 2005, published 2009).

For series [1] the following is noted: cited from earlier work.
Series [2] in a line: Adsorption test to porous material. In kind it is physicochemical. As to conditions: for Amount of adsorbed Compound A: shaken for two hours. The protocol:
To a solution prepared by completely dissolving 1.5 mg of Compound A in 1.5 mL of dichloromethane, 15 mg of porous material (light anhydrous silicic acid (Sylysia 350, produced by Fuji Silysia Chemical Co., Ltd.) or silicon dioxide (Sylysia 530, produced by Fuji Silysia Chemical Co., Ltd.) was dispersed, and this mixture was shaken for two hours using Roter RT-50 (TAITEC) and an amount of Compound A which adsorbed simply to the light anhydrous silicic acid or silicon dioxide (μg/mg porous material) was calculated by measuring the absorbance (280 nm) of a filtrate obtained by filtering with a membrane filter (0.45 μm PTFE). The amount of Compound A which adsorbed simply to the light anhydrous silicic acid or silicon dioxide ([…] porous material) was calculated by the following computational expression.
Concentration of Compound A in the filtrate (μg/mL)=ABS÷Slope of analytical curve×Dilution ratio
Here, ABS represents the absorbance.
Amount of adsorbed Compound A (g/mg porous material)=(Concentration of Compound A before the porous material was dispersed (g/mL)−Concentration of Compound A in the filtrate (g/mL))×Volume of Compound A solution (mL)÷Mass of porous material (mg)
Calculation was also conducted using ethanol in place of dichloromethane as a comparison.

A short description of series [3]: Differential scanning calorimetry analysis. In kind it is physicochemical. As to conditions: when dichloromethane was used.
The test system of series [4] is interleukin-lp production. The settings on record: known from Patent Document 1; cited from earlier work.

Consider `CSc1ccc(-c2nn(Cc3ccccc3)c(=O)cc2-c2ccc(Cl)cc2)cc1` [Compound A, 2-benzyl-5-(4-chlorophenyl)-6-[4-(methylthio)phenyl]-2H-pyridazin-3-one], for which the Solubility in water result in series [1] was “extremely insoluble”. Further, the “Amount of adsorbed Compound A” value was 17.6 μg/mg porous material in series [2] (Dichloromethane, light anhydrous silicic acid (Sylysia 350)); 24.8 μg/mg porous material in series [2] (Dichloromethane, silicon dioxide (Sylysia 530)); 0.0 μg/mg porous material in series [2] (Ethanol, light anhydrous silicic acid (Sylysia 350)); 0.0 μg/mg porous material in series [2] (Ethanol, silicon dioxide (Sylysia 530)). In addition, the “Adsorption of Compound A to the porous material (in words)” value in series [2] (dichloromethane, light anhydrous silicic acid) is listed as “adsorbed”; in series [2] (dichloromethane, silicon dioxide), “adsorbed”; in series [2] (ethanol, light anhydrous silicic acid) it was “did not adsorb”; in series [2] (ethanol, silicon dioxide) it was “did not adsorb”. In addition, the “Solid state of Compound A” value in series [3] is “existed in amorphous state”. Also, the “interleukin-lp production suppressive effect” value in series [4] is on record as “excellent”.
